Measurements published in ChEMBL document CHEMBL1201862, “PubChem BioAssay data set” (2004).
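Briefly, cells in 96-well plates were exposed to five compound concentrations for 48 h, and endpoints were estimated by linear interpolation. GI50 = concentration required for 50% inhibition of growth.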 Activity calls are given as the source filed them. Cut-off read from the data, not from the text of the source: active = GI50 up to about 1.1 µM and inactive = higher.

Assays:
Test in all cases: NCI tumour cell line growth inhibition, 48 h
COLO 205 = test system: COLO 205
786-0 = test system: 786-0
CCRF-CEM = test system: CCRF-CEM
MDA-MB-435 = test system: MDA-MB-435
SK-OV-3 = test system: SK-OV-3
SNB-19 = test system: SNB-19
SR = test system: SR
IGROV-1 = test system: IGROV-1
A498 = test system: A498
Malme-3M = test system: Malme-3M
M14 = test system: M14
MDA-MB-231 = test system: MDA-MB-231
CAKI-1 = test system: CAKI-1
BT-549 = test system: BT-549
OVCAR-5 = test system: OVCAR-5
NCI-H226 = test system: NCI-H226
NCI/ADR-RES = test system: NCI/ADR-RES
OVCAR-3 = test system: OVCAR-3
SK-MEL-28 = test system: SK-MEL-28
DU-145 = test system: DU-145
UACC-62 = test system: UACC-62
LOX IMVI = test system: LOX IMVI
HCC 2998 = test system: HCC 2998
HOP-92 = test system: HOP-92
SK-MEL-5 = test system: SK-MEL-5
U-251 = test system: U-251
SNB-75 = test system: SNB-75
UO-31 = test system: UO-31
Hs-578T = test system: Hs-578T
T47D = test system: T47D
TK-10 = test system: TK-10
HCT-116 = test system: HCT-116
MDA-N = test system: MDA-N
NCI-H522 = test system: NCI-H522
MOLT-4 = test system: MOLT-4
EKVX = test system: EKVX
UACC-257 = test system: UACC-257
K562 = test system: K562
HCT-15 = test system: HCT-15
SF-295 = test system: SF-295
PC-3 = test system: PC-3
RPMI-8226 = test system: RPMI-8226
OVCAR-8 = test system: OVCAR-8
MCF7 = test system: MCF7
KM12 = test system: KM12
HT-29 = test system: HT-29
NCI-H23 = test system: NCI-H23
SN12C = test system: SN12C
A549 = test system: A549
HOP-62 = test system: HOP-62
ACHN = test system: ACHN
SF-268 = test system: SF-268
SW-620 = test system: SW-620
OVCAR-4 = test system: OVCAR-4
NCI-H460 = test system: NCI-H460
RXF 393 = test system: RXF 393
HL-60 = test system: HL-60
SF-539 = test system: SF-539
SK-MEL-2 = test system: SK-MEL-2

For `O=C1c2ccccc2C(=O)N1CCCCNOCCCN1C(=O)c2ccccc2C1=O`, the GI50 (COLO 205) was > 100 µM (inactive), the GI50 (786-0) was > 100 µM (inactive) and the GI50 (CCRF-CEM) was > 100 µM (inactive). The GI50 (MDA-MB-435) was > 100 µM (inactive), the GI50 (SK-OV-3) was > 100 µM (inactive) and the GI50 (SNB-19) was > 100 µM (inactive). The GI50 (SR) was > 100 µM (inactive), the GI50 (IGROV-1) was > 100 µM (inactive) and the GI50 (A498) was > 100 µM (inactive). For the same compound, the GI50 (Malme-3M) was > 100 µM (inactive), the GI50 (M14) was > 100 µM (inactive) and the GI50 (MDA-MB-231) was > 100 µM (inactive). The GI50 (CAKI-1) was > 100 µM (inactive), the GI50 (BT-549) was > 100 µM (inactive) and the GI50 (OVCAR-5) was > 100 µM (inactive). For the same compound, the GI50 (NCI-H226) was > 100 µM (inactive), the GI50 (NCI/ADR-RES) was > 100 µM (inactive) and the GI50 (OVCAR-3) was > 100 µM (inactive). The GI50 (SK-MEL-28) was > 100 µM (inactive), the GI50 (DU-145) was > 100 µM (inactive) and the GI50 (UACC-62) was > 100 µM (inactive). The GI50 (LOX IMVI) was > 100 µM (inactive), the GI50 (HCC 2998) was > 100 µM (inactive) and the GI50 (HOP-92) was > 100 µM (inactive). The GI50 (SK-MEL-5) was > 100 µM (inactive), the GI50 (U-251) was > 100 µM (inactive) and the GI50 (SNB-75) was > 100 µM (inactive). The GI50 (UO-31) was > 100 µM (inactive), the GI50 (Hs-578T) was > 100 µM (inactive) and the GI50 (T47D) was > 100 µM (inactive). For the same compound, the GI50 (TK-10) was > 100 µM (inactive), the GI50 (HCT-116) was > 100 µM (inactive) and the GI50 (MDA-N) was > 100 µM (inactive). For the same compound, the GI50 (NCI-H522) was > 100 µM (inactive), the GI50 (MOLT-4) was > 100 µM (inactive) and the GI50 (EKVX) was > 100 µM (inactive). The GI50 (UACC-257) was > 100 µM (inactive), the GI50 (K562) was > 100 µM (inactive) and the GI50 (HCT-15) was over 100 µM. The GI50 (SF-295) was > 100 µM (inactive), the GI50 (PC-3) was > 100 µM (inactive) and the GI50 (RPMI-8226) was > 100 µM (inactive). For the same compound, the GI50 (OVCAR-8) was > 100 µM (inactive), the GI50 (MCF7) was > 100 µM (inactive) and the GI50 (KM12) was > 100 µM (inactive). The GI50 (HT-29) was > 100 µM (inactive), the GI50 (NCI-H23) was > 100 µM (inactive) and the GI50 (SN12C) was > 100 µM (inactive). For the same compound, the GI50 (A549) was > 100 µM (inactive), the GI50 (HOP-62) was > 100 µM (inactive) and the GI50 (ACHN) was > 100 µM (inactive). The GI50 (SF-268) was > 100 µM (inactive), the GI50 (SW-620) was > 100 µM (inactive) and the GI50 (OVCAR-4) was > 100 µM (inactive). The GI50 (NCI-H460) was > 100 µM (inactive) and the GI50 (RXF 393) was > 100 µM (inactive).
In the case of `CN(C)CCCN1c2ccccc2Sc2ccc3ccccc3c21`, the GI50 (COLO 205) is reported as 4.56 µM (inactive), the GI50 (786-0) is reported as 11 µM (inactive) and the GI50 (CCRF-CEM) is reported as 2.23 µM (inactive). The GI50 (MDA-MB-435) was 3.1 µM (inactive), the GI50 (SK-OV-3) was 14.2 µM (inactive) and the GI50 (SNB-19) was 14.8 µM (inactive). For the same compound, the GI50 (SR) was 1.09 µM (active), the GI50 (IGROV-1) was 8.67 µM (inactive) and the GI50 (A498) was 5.71 µM (inactive). For the same compound, the GI50 (Malme-3M) was 6.49 µM (inactive), the GI50 (M14) was 1.79 µM (inactive) and the GI50 (MDA-MB-231) was 3.15 µM (inactive). For the same compound, the GI50 (CAKI-1) was 5.13 µM (inactive), the GI50 (BT-549) was 13.1 µM (inactive) and the GI50 (OVCAR-5) was 11.3 µM (inactive). For the same compound, the GI50 (NCI-H226) was 6.58 µM (inactive), the GI50 (NCI/ADR-RES) was 7.82 µM (inactive) and the GI50 (OVCAR-3) was 8.49 µM (inactive). For the same compound, the GI50 (SK-MEL-28) was 2.08 µM (inactive), the GI50 (DU-145) was 12.8 µM (inactive) and the GI50 (UACC-62) was 4.61 µM (inactive). For the same compound, the GI50 (LOX IMVI) was 4.91 µM (inactive), the GI50 (HL-60) was < 0.01 µM (active) and the GI50 (HCC 2998) was 1.53 µM (inactive). For the same compound, the GI50 (HOP-92) was 5.52 µM (inactive), the GI50 (SK-MEL-5) was 4.17 µM (inactive) and the GI50 (U-251) was 7.23 µM (inactive). For the same compound, the GI50 (UO-31) was 4.36 µM (inactive), the GI50 (Hs-578T) was 8.73 µM (inactive) and the GI50 (T47D) was 2.05 µM (inactive). For the same compound, the GI50 (TK-10) was 4.45 µM (inactive), the GI50 (HCT-116) was 10.2 µM (inactive) and the GI50 (MDA-N) was 4.12 µM (inactive). The GI50 (NCI-H522) was 7.94 µM (inactive), the GI50 (MOLT-4) was 2.92 µM (inactive) and the GI50 (EKVX) was 10.7 µM (inactive). For the same compound, the GI50 (UACC-257) was 1.84 µM (inactive), the GI50 (K562) was 1.86 µM (inactive) and the GI50 (SF-539) was 16.1 µM (inactive). For the same compound, the GI50 (HCT-15) was 6.43 µM, the GI50 (SF-295) was 13.2 µM (inactive) and the GI50 (PC-3) was 3.75 µM (inactive). For the same compound, the GI50 (RPMI-8226) was 2.48 µM (inactive), the GI50 (OVCAR-8) was 12.7 µM (inactive) and the GI50 (MCF7) was 5.75 µM (inactive). For the same compound, the GI50 (KM12) was 6.58 µM (inactive), the GI50 (HT-29) was 3.52 µM (inactive) and the GI50 (NCI-H23) was 14.3 µM (inactive). For the same compound, the GI50 (SK-MEL-2) was 5.79 µM (inactive), the GI50 (SN12C) was 9.06 µM (inactive) and the GI50 (A549) was 13.2 µM (inactive). For the same compound, the GI50 (HOP-62) was 12 µM (inactive), the GI50 (ACHN) was 8.3 µM (inactive) and the GI50 (SF-268) was 9.06 µM (inactive). For the same compound, the GI50 (SW-620) was 8.3 µM (inactive), the GI50 (OVCAR-4) was 5.35 µM (inactive) and the GI50 (NCI-H460) was 2.79 µM (inactive). For the same compound, the GI50 (RXF 393) was 1.65 µM (inactive).
